Key:
Type in all cases: biochemical
Ube1 [1] = molecular target: T1, Ube1 (Homo sapiens, UniProt P22314); assay: Gel-based Ube1~Ub thioester assay with purified Ube1; also on-bead UPS-CONA with Ube1 alone (IC50 below […])
T1 construct: gene UBA1
T1 sequence (P22314 2-1058): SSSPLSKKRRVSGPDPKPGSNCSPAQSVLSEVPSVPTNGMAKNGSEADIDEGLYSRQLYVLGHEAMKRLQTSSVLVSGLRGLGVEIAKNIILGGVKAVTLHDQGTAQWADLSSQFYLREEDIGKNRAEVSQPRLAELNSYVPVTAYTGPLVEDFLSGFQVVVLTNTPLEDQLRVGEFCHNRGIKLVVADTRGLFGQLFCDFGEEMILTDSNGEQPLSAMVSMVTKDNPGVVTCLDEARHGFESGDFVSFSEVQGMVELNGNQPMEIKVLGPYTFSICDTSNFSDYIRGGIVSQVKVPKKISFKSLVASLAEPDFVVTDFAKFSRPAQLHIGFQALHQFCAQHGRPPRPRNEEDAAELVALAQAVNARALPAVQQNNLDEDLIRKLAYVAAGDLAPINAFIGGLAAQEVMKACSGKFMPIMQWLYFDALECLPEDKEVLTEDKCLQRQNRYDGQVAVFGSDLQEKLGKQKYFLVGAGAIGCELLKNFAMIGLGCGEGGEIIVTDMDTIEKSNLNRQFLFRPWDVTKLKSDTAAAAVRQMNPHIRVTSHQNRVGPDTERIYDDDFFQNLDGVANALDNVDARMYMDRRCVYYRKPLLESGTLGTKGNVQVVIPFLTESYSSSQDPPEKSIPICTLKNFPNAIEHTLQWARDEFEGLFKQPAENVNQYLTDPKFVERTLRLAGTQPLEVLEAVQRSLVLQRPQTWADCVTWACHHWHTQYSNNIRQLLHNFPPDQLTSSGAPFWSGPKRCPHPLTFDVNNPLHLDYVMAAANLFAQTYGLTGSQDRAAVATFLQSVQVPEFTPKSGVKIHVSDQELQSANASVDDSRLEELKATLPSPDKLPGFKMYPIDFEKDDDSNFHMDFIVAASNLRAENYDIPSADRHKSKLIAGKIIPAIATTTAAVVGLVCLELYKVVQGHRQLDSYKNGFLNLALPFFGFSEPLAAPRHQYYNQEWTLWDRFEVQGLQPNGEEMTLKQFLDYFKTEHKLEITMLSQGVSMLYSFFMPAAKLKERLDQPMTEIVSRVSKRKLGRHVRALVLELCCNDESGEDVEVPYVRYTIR

Ube2L3 = molecular target: T2, Ube2L3 (Homo sapiens, UniProt P68036); assay: On-bead UPS-CONA, concentration-dependent inhibition on eGFP-Ube2L3
T2 construct: eGFP-Ube2L3

Ube1 [2] = molecular target: T1, Ube1; assay: Gel-based Ube1~Ub thioester assay and on-bead UPS-CONA with Ube1 alone

T2 sequence (P68036 whole entry, one chain of several): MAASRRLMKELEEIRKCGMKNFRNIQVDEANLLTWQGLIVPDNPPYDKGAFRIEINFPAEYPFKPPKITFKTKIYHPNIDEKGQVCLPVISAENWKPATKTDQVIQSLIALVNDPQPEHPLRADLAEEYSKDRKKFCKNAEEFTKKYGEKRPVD

Row | IC50 (Ube1 [1]) | IC50 (Ube2L3) | IC50 (Ube1 [2]) | SMILES
1 | ~4.6 µM | 7.5 µM |  | Cc1ccc(S(=O)(=O)/C=C/C#N)cc1 [BAY 11-7082]
2 |  |  | 16 µM | CCc1ccc(/C=C/C(=O)Nc2ccc(C(C)=O)cc2)o1 [heclin]
